# Assay results from patent US5561131A, “Defaunation method” (Mallinckrodt Veterinary, Inc., priority 1991, dated 1996).
# Columns and labels:
# [1] = tested on: rumen ciliate protozoa; assay: In vitro activity of defaunation compounds against rumen ciliate protozoa; type: cell-based; settings: 39° C., anaerobic, 3 hours, tested at 50, 150, 250 and 500 ppm
# Protocol: Compounds of Table 1 were tested for their toxicity against rumen ciliate protozoa by firstly isolating protozoa from rumen liquor collected from faunated animals. The rumen liquor was then centrifuged at 500 g for five minutes and the supernatant discarded. The protozoal-rich sediment was then reconstituted in McDougal's artificial saliva. Residual bacteria were suppressed by using a combination of two antibiotics at low concentration. Nitrogen and energy substrate was optimized for the protozoal preparation. At all times the protozoal preparation was maintained at 39° C. and kept anaerobic.
# Sixty milligrams of each the compounds of Table 1 were dissolved in 1.2 ml of dimethyl sulphoxide and dispersed in triplicate to achieve a final concentration of 50, 150, 250 and 500 ppm. Ten milliliters of protozoal preparation was then added to each tube. After every second compound, control tubes were included which contained everything except for compound. The tubes, to which a 5 ml glass syringe was attached, were then incubated for 3 hours in a water bath at 39° C. The production of gas causes the syringe plunger to be displaced.
# At the end of the incubation period, the volume of gas produced was recorded and the viability of the protozoa assessed visually using a microscope. The toxicity of the compounds to protozoa was assessed from both the reduction in gas produced relative to the control and by direct observation of the protozoa for movement of cilia.
# [2] = tested on: rumen bacteria; assay: In vitro bacterial gas inhibition; type: cell-based; settings: at the concentration known to kill protozoa
# Protocol: Compounds of Table 1 were also tested for toxicity bacteria. This involved removing protozoa from rumen liquor by centrifugation at 2,000 g for 5 minutes and collecting the bacterial rich supernatant. Nitrogen and energy substrate was added to the bacterial preparation which was then dispensed in triplicate 10 ml volumes over the same range of compound concentrations (50, 150, 250 and 500 ppm.) referred to in Example 2. Control tubes were placed after every second compound to enable the inhibition of gas resulting from the compound to be assessed. […] It can be seen that these compounds are selective in their mode of action, in that they are more toxic to protozoa than bacteria.
# [3] = tested on: mice; assay: Mouse safety assessment; type: in vivo; settings: oral gavage, 830, 415 and 217 mg/kg, observed for 2 days
# Protocol: Compounds of Table 1 chosen for testing in sheep were first tested in mice for signs of toxicity. Because sheep are approximately 5 times more sensitive than mice to compounds dosed orally, the dose rates applied to mice were 5 times greater than the target dose rate of 500 ppm. in rumen liquor (83 mg/kg live weight) used for sheep. Each compound was screened at three different dose levels, high (830 mg/kg), medium (415 mg/kg) and low (217 mg/kg).
# 252 mg of compound was used for dilution into a high medium and low dose rate. 252 mg of compound was mixed with 3 ml of G1284 solution (4% w/v ethoxylated castor oil and 0.05% w/v simethicone), to form the high dose composition. The medium dose composition was formed by diluting 1.5 ml of the high dose with 1.5 ml of G1284 solution. The low dose composition was formed by diluting 1.5 ml of the medium dose with 1.5 ml of G1284 solution. Before the high dose could be diluted it was first manually ball milled in an effort to produce a fine suspension of the compound.
# All mice were weighed before dosing to calculate the appropriate dose rate. The calculation for dose rate was: [formula]
# Each mouse was dosed using the Gavage method. With this method the mouse is dosed orally by way of an angled hypodermic needle (18 g) with a smooth spherical end. It is gently placed down the esophagus. All care must be taken not to force the needle and injure the esophagus or dose into the lungs.
# Observations were made at 10, 30, 60 and 120 minutes after dosing, then every 1 or 2 hours for the first 6 hours.
# Mice were usually observed for 2 days.
# Typically, few compounds fell within the poor classification. The majority of compounds tested were either in the fair or good classification.
# [4] = tested on: rumen ciliate protozoa; assay: Protozoal reduction in sheep; type: in vivo; set-up: concentration or dose not given beside the values; settings: one week after dosing, relative to predosing numbers
# Protocol: Defaunation compositions were prepared according to the method of Example 1.
# Prior to dosing of the compound, a sample of rumen liquor (200 ml) was withdrawn to establish basal numbers of protozoa.
# The sample was collected using a stomach tube, inserted into the rumen via a rumen cannula (fistulated animals) or per esophagus (intact animals). After straining the sample was well mixed using a magnetic stirrer and a 0.5 ml sample was withdrawn and added to 49.5 ml of a crystal violet stain. Protozoa were counted using a microscope and a Hawksley counting chamber.
# One week after administering the compound, another rumen liquor sample was collected (as described above) and examined for the presence of protozoa. Where rumen ciliate protozoa were undetectable, a reduction or inhibition value of 100% was recorded. In general, most compounds expressed a strong inhibitory effect on protozoal populations.
# [5] = tested on: rumen bacteria; assay: Bacterial viability in sheep after administering defaunation compounds; type: in vivo; settings: gas production one week after dosing vs pre-dosing
# Protocol: In order to establish what effect the compounds had on the viability of rumen bacteria, a sample of rumen liquor was collected prior to dosing of the compound. The sample was withdrawn under vacuum using a pre-warmed tube inserted into the rumen through a rumen cannula. The sample was collected in a pre-warmed (39° C.) flask, gassed with carbon dioxide and covered. Two-pre-warmed 30 ml centrifuge tubes were then filled with well mixed rumen liquor and centrifuged at 2000 rpm for 5 minutes. Half the volume of each tube was then poured into another pre-warmed tube without disturbing the sediment. Three lots of 10 ml of this rumen liquor were then pipetted into 15 ml tubes which contained 10 μL of urea solution (40% w/v and 300 μL of glucose solution (50% w/v). The urea and glucose acted as substrate for the bacteria. The tubes were then gassed with carbon dioxide, stoppered and placed in a water bath at 39° C. After 10 minutes a 5 ml glass syringe was secured into the stoppers (through which a hypodermic needle had been inserted) and the gas collected for five hours and recorded.
# This bacterial viability measure was then repeated one week after dosing with each of the compounds referred to in Table 1. Defaunation compositions were prepared according to the method of Example 1. The amount of gas produced was then compared with the pre-dosing level. The criterion for classifying post-dosing bacterial viability is shown below:
# Poor--reduction in post-dosing gas production relative to pre-dosing levels.
# OK--post-dosing gas production the same as pre-dosing levels.
# Good--increase in post-dosing gas production relative to pre-dosing levels.
# [6] = Effect of defaunation compounds on feed intake of sheep; type: in vivo; settings: after dosing vs pre-dosing intake
# Protocol: Sheep were allowed a minimum of three weeks to adapt to their ration of 900 g of oaten chaff and 100 g of Lucerne chaff. The pre-dosing level of intake for each animal was established from the mean of five days intake immediately prior to dosing. Any effects of administering the compound on feed intake was then determined by measuring the level of feed intake after dosing.
# The criteria of classifying the effect on food intake are shown below.
# Poor--greater than 50% reduction in feed intake during the first week after dosing.
# Fair--greater than 50% reduction in feed intake on the day following dosing but less then 50% reduction one week after dosing.
# OK--transient drop in feed intake which is less than 50% on the day after dosing.
# Good--No reduction in feed intake following dosing.
compound,measurement,setting,value
CN(c1ccc(Cl)c(Cl)c1)c1nc(Cl)nc(Cl)n1 [Compound 29],Conc Required to Kill all Protozoa,[1],150 ppm
same,Bact. Gas Inhibition at the conc. required to kill protozoa,[2],41
same,Mouse Safety Assessment,[3],Fair (>2 mice sick)
same,Protozoal Reduction,[4],98%
same,Bacterial Viability,[5],Good
same,Feed Intake,[6],Good
COc1ccc(Nc2nc(Cl)nc(Cl)n2)cc1OC [Compound 17],Conc Required to Kill all Protozoa,[1],250 ppm
same,Bact. Gas Inhibition at the conc. required to kill protozoa,[2],43
same,Mouse Safety Assessment,[3],Good
same,Protozoal Reduction,[4],98%
same,Bacterial Viability,[5],Okay
same,Feed Intake,[6],Fair
Clc1nc(Cl)nc(Nc2ccccc2)n1 [Compound 1],Conc Required to Kill all Protozoa,[1],250 ppm
same,Bact. Gas Inhibition at the conc. required to kill protozoa,[2],43
Cc1ccc(Nc2nc(Cl)nc(Cl)n2)cc1[N+](=O)[O-] [Compound 26],Conc Required to Kill all Protozoa,[1],250 ppm
same,Bact. Gas Inhibition at the conc. required to kill protozoa,[2],47
CSc1cccc(Nc2nc(Cl)nc(Cl)n2)c1 [Compound 15],Conc Required to Kill all Protozoa,[1],150 ppm
same,Bact. Gas Inhibition at the conc. required to kill protozoa,[2],52
same,Mouse Safety Assessment,[3],Fair (>2 mice sick)
same,Protozoal Reduction,[4],100%
same,Bacterial Viability,[5],Good
same,Feed Intake,[6],Good
COc1ccc(Nc2nc(Cl)nc(Cl)n2)c([N+](=O)[O-])c1 [Compound 31],Conc Required to Kill all Protozoa,[1],250 ppm
same,Bact. Gas Inhibition at the conc. required to kill protozoa,[2],39
COc1cccc(Nc2nc(Cl)nc(Cl)n2)c1 [Compound 23],Conc Required to Kill all Protozoa,[1],150 ppm
same,Bact. Gas Inhibition at the conc. required to kill protozoa,[2],50
same,Mouse Safety Assessment,[3],Fair (>2 mice sick)
same,Protozoal Reduction,[4],79%
same,Bacterial Viability,[5],Good
same,Feed Intake,[6],Good
Cc1ccc(Nc2nc(Cl)nc(Cl)n2)cc1 [Compound 6],Conc Required to Kill all Protozoa,[1],150 ppm
same,Bact. Gas Inhibition at the conc. required to kill protozoa,[2],40
same,Mouse Safety Assessment,[3],Poor (death at 840 mg/kg)
same,Protozoal Reduction,[4],100%
same,Bacterial Viability,[5],Okay
same,Feed Intake,[6],"Okay (transient drop, less than 50% at day 2)"
Cc1cc(C)c(Nc2nc(Cl)nc(Cl)n2)c(C)c1 [Compound 9],Conc Required to Kill all Protozoa,[1],250 ppm
same,Bact. Gas Inhibition at the conc. required to kill protozoa,[2],41
same,Mouse Safety Assessment,[3],Good
same,Protozoal Reduction,[4],88%
same,Bacterial Viability,[5],Good
same,Feed Intake,[6],Good
COc1ccc(Nc2nc(Cl)nc(Cl)n2)c(C)c1 [Compound 13],Conc Required to Kill all Protozoa,[1],250 ppm
same,Bact. Gas Inhibition at the conc. required to kill protozoa,[2],48
Clc1nc(Cl)nc(Nc2ccc(-c3ccccc3)cc2)n1 [Compound 25],Conc Required to Kill all Protozoa,[1],150 ppm
same,Bact. Gas Inhibition at the conc. required to kill protozoa,[2],53
Cc1ccc(N(C)c2nc(Cl)nc(Cl)n2)c(C)c1 [Compound 12],Conc Required to Kill all Protozoa,[1],250 ppm
same,Bact. Gas Inhibition at the conc. required to kill protozoa,[2],35
Clc1nc(Cl)nc(Nc2ccc(Cl)c(Cl)c2)n1 [Compound 7],Conc Required to Kill all Protozoa,[1],250 ppm
same,Bact. Gas Inhibition at the conc. required to kill protozoa,[2],30
same,Mouse Safety Assessment,[3],Fair (>2 mice sick)
same,Protozoal Reduction,[4],100%
same,Bacterial Viability,[5],Poor
same,Feed Intake,[6],Poor (greater than 50% reduction between day 2 to day 8)
Clc1nc(Cl)nc(Nc2cccc(I)c2)n1 [Compound 22],Conc Required to Kill all Protozoa,[1],150 ppm
same,Bact. Gas Inhibition at the conc. required to kill protozoa,[2],75
same,Mouse Safety Assessment,[3],Fair (>2 mice sick)
same,Protozoal Reduction,[4],100%
same,Bacterial Viability,[5],Okay
same,Feed Intake,[6],Good
Cc1ccc(N(C)c2nc(Cl)nc(Cl)n2)cc1 [Compound 33],Conc Required to Kill all Protozoa,[1],250 ppm
same,Bact. Gas Inhibition at the conc. required to kill protozoa,[2],33
CC(C)(C)c1ccc(Nc2nc(Cl)nc(Cl)n2)cc1 [Compound 20],Conc Required to Kill all Protozoa,[1],150 ppm
same,Bact. Gas Inhibition at the conc. required to kill protozoa,[2],55
same,Mouse Safety Assessment,[3],Fair (>2 mice sick)
same,Protozoal Reduction,[4],100%
same,Bacterial Viability,[5],Okay
same,Feed Intake,[6],Good
N#Cc1cccc(Nc2nc(Cl)nc(Cl)n2)c1 [Compound 19],Conc Required to Kill all Protozoa,[1],250 ppm
same,Bact. Gas Inhibition at the conc. required to kill protozoa,[2],50
same,Mouse Safety Assessment,[3],Fair (>2 mice sick)
same,Protozoal Reduction,[4],100%
same,Bacterial Viability,[5],Poor
same,Feed Intake,[6],Good
O=[N+]([O-])c1cccc(Nc2nc(Cl)nc(Cl)n2)c1 [Compound 16],Conc Required to Kill all Protozoa,[1],250 ppm
same,Bact. Gas Inhibition at the conc. required to kill protozoa,[2],47
same,Protozoal Reduction,[4],72%
same,Bacterial Viability,[5],Good
same,Feed Intake,[6],Good
CN(c1ccccc1)c1nc(Cl)nc(Cl)n1 [Compound 14],Conc Required to Kill all Protozoa,[1],250 ppm
same,Bact. Gas Inhibition at the conc. required to kill protozoa,[2],38
CC(C)c1ccc(Nc2nc(Cl)nc(Cl)n2)cc1 [Compound 21],Conc Required to Kill all Protozoa,[1],150 ppm
same,Bact. Gas Inhibition at the conc. required to kill protozoa,[2],55
same,Mouse Safety Assessment,[3],Fair (>2 mice sick)
same,Protozoal Reduction,[4],100%
same,Bacterial Viability,[5],Good
same,Feed Intake,[6],Good
Clc1nc(Cl)nc(Nc2ccc(Br)cc2)n1 [Compound 3],Conc Required to Kill all Protozoa,[1],250 ppm
same,Bact. Gas Inhibition at the conc. required to kill protozoa,[2],45
same,Protozoal Reduction,[4],100%
same,Bacterial Viability,[5],Good
same,Feed Intake,[6],Good
Oc1ccc(Nc2nc(Cl)nc(Cl)n2)cc1 [Compound 4],Conc Required to Kill all Protozoa,[1],250 ppm
same,Bact. Gas Inhibition at the conc. required to kill protozoa,[2],43
same,Protozoal Reduction,[4],100%
same,Bacterial Viability,[5],Poor
same,Feed Intake,[6],Poor (greater than 50% reduction between day 2 to day 8)
Cc1cc(O)c(C(C)(C)C)cc1Nc1nc(Cl)nc(Cl)n1 [Compound 34],Conc Required to Kill all Protozoa,[1],250 ppm
same,Bact. Gas Inhibition at the conc. required to kill protozoa,[2],81
